According to the NIST ThermoML archive (doi:10.1016/j.jct.2008.05.001):
Numbers after ± are expanded uncertainties.

Settings: 293 K, 101.33 kPa, Pycnometric method

mass density (Crystal) [kg/m3] | mass density (Liquid) [kg/m3] | Structure (SMILES)
1320 ± 10 |  | O=C1OCCO1 [ethylene carbonate]
 | 1140 ± 10 | CCC1COC(=O)O1 (configuration not stated) [1,2-butylene carbonate]
